Measured values from PubChem BioAssay AID1419 (Emory University Molecular Libraries Screening Center, 2008).
The source made the active and inactive calls. How the calls were made is not given here.

Experiment: EBV protein-peptide binding inhibitors, dose response, biochemical, fluorescence polarization (AID 1419)
Details: cell-free protein-peptide binding, 2 h; for fold change: measured here: P channel fold over control, at 54 µM

Row | SMILES | IC50 | fold change
1 | Cc1cc(/C=C2\SC(=S)N(Cc3ccco3)C2=O)c(C)n1-c1ccccc1 | 7.24 µM | 4.81
2 | CCC(=O)Nc1nc2n(n1)C(c1ccc(OC)cc1)C=C(c1ccccc1)N2 (configuration not stated) | 5.14 µM | 2.8
3 | COc1ccc(C(=O)NC2(C(F)(F)F)C(=O)N(Cc3ccco3)C3=C2C(=O)CC(C)(C)C3)cc1OC (configuration not stated) | > 54 µM (inactive) | 1.14
4 | COc1ccccc1Nc1nc2ccc(C)cc2cc1C#N | 16.6 µM | 2.74
5 | Cc1cc2nc3c(=O)n(Cc4ccccc4)c(=O)[nH]c3nc2cc1N | < 0.42 µM | 87.1
6 | Nc1ccc2nc3c(=O)[nH]c(=S)[nH]c3nc2c1 | < 0.42 µM | 86.2
7 | CSc1nc(N(CCO)CCO)c2sc3nc(-c4ccco4)c4c(c3c2n1)CCC4 | > 54 µM (inactive) | 1.07
8 | O=C1N=c2ccccc2=C1c1sc(Nc2ccc(O)cc2)nc1O | 1.88 µM | 0.2
9 | CCCN1CC=C2C(C#N)=C(N)C(C#N)(C#N)C(c3cccc(OC)c3OC)C2C1 (configuration not stated) | 1.28 µM | 7.4
10 | Cc1cc(N(CCCl)CCCl)ccc1/C=N/NC(=O)c1ccco1 | > 54 µM (inactive) | 1.06
11 | OCCNc1nc(Nc2ccc(Br)cc2)nc2ccccc12 | > 54 µM (inactive) | 0.987
12 | CCCCNc1ccc2c3c(cccc13)C(=O)N(CCCC)C2=O | < 0.42 µM | 98.3
13 | CSC1=NSC2=NC(=O)/C(=C\c3coc4ccccc4c3=O)C(=N)N12 | 2.74 µM | 82.6
14 | CN1/C(=C/C=C(C#N)C#N)C(C)(C)c2ccccc21 | > 54 µM (inactive) | 1.64
15 | Cc1ccsc1C1C=C(c2cccc(Br)c2)Nc2ncnn21 (configuration not stated) | 1.75 µM | 3.13
16 | CCn1c(O)c(/C=N/N=C/c2ccccc2)c2ccc(C3=NNC(=O)CC3)cc21 | 14.8 µM | 9.01
17 | CCN(CC)c1ccc2cc(S(=O)(=O)c3ccc(C)cc3)c(=O)oc2c1 | 6.25 µM | 36.6
18 | O=C(COc1ccccc1Cl)c1ccc[nH]1 | > 54 µM (inactive) | 1.08
19 | C=CCSc1nccc(-c2cc(Cl)sc2Cl)n1 | > 54 µM (inactive) | 0.953
20 | CN1CCCc2cc3c(C(F)(F)F)cc(=O)oc3nc21 | < 0.42 µM | 18.4
21 | Cn1c(=O)c2[nH]c(-c3ccccc3)c(O)c2n(C)c1=O | < 0.42 µM | 6.43

Row | SMILES | IC50 | fold change
22 | Nc1ccc2c(c1Cl)C(=O)c1ccc(N)c(Cl)c1C2=O | 11.4 µM | 1.07
23 | O=c1oc2ccccc2cc1-c1nc(-c2cccs2)cs1 | 2.96 µM | 25.8
24 | COc1ccc(Cl)cc1CN1CCN(c2nc(C)cc(C)c2C#N)CC1 | 18.9 µM | 2.25
25 | CCOc1cc(-c2ccc(N)c(OCC)c2)ccc1N | 1.52 µM | 5.61
26 | Cc1nnc(N2C(=O)C(O)=C(C(=O)c3ccco3)C2c2ccc(C(C)C)cc2)s1 (configuration not stated) | 2.2 µM | 3.11
27 | O=C1/C(=C/c2ccco2)SC(=S)N1c1cccnc1 | > 54 µM (inactive) | 1.09
28 | S=C(Nc1ccc(N2CCOCC2)cc1)Nc1ccc2nc(-c3ccco3)c(-c3ccco3)nc2c1 | 3.86 µM | 3.7
29 | CC1=NOC(=O)/C1=C\c1ccc(-c2cc(Cl)ccc2Cl)o1 | 1.49 µM | 4.14
30 | Cc1ccc(N=C2NC(=O)/C(=C/c3cn(C)c4ccccc34)S2)cc1C | 4.47 µM | 7.74
31 | CCOc1ccc(C2CC(c3c(O)c4ccccc4oc3=O)=NN2c2ccccc2)cc1OC (configuration not stated) | 2.06 µM | 49.3
32 | CCc1ccc(NC(=O)c2ccc3ncsc3c2)cc1 | > 54 µM (inactive) | 0.87
33 | Cc1ccc(NC(=O)CN2C(=O)N/C(=C/c3cccn3-c3ccc(C(=O)O)cc3)C2=O)cc1 | > 54 µM (inactive) | 1.2
34 | COc1cc([N+](=O)[O-])ccc1-c1ccc(/C=N/NC(=O)c2ccccc2O)o1 | > 54 µM (inactive) | 0.5
35 | COc1ccc(Nc2nc(=O)c3cc([N+](=O)[O-])ccc3s2)cc1 | > 54 µM (inactive) | 0.377
36 | Cc1nn(C)c(C)c1N1C(=O)c2cccc3c(N)ccc(c23)C1=O | < 0.42 µM | 203
37 | COc1nc(NCCC2=CCCCC2)nc(OC)n1 | > 54 µM (inactive) | 1
38 | COc1ccc(NC(=O)C2Cc3ccccc3CN2C(=O)c2ccccc2)cn1 (configuration not stated) | 8.48 µM | 3.29
39 | Cc1ccc(C2=N/C(=C\c3c(C)nn(-c4ccccc4)c3N3CCCC3)C(=O)O2)cc1 | 5.71 µM | 6.13
40 | COc1ccc(/C=N/N=C2/CC(C)(C)Cc3n[nH]c(=O)cc32)cc1 | 4.15 µM | 3.61
41 | Cc1ccc(N=Nc2[nH]c3ccccc3c2O)cc1 | 4.87 µM | 27
42 | CCOC(=O)N1CCC(Nc2nc3ccccc3nc2NS(=O)(=O)c2ccc(Cl)cc2)CC1 | > 54 µM (inactive) | 1.39

Row | SMILES | IC50 | fold change
43 | Cc1cc(C)cc(-n2c(O)c(C=Nc3ccc(N4CCOCC4)cc3)c(=O)[nH]c2=S)c1 | > 54 µM (inactive) | 2.23
44 | CCCn1nc(-c2ccccc2)c2nc3ccccc3nc21 | 2.37 µM | 32
45 | COc1ccc(-c2cc(C(F)(F)F)c3c(n2)sc2c(O)cc(=O)[nH]c23)c(OC)c1 | 3.77 µM | 3.12
46 | O=C(C1=NN(c2ccccc2)C2C(=O)N(c3ccccc3)C(=O)C12)c1ccccc1 (configuration not stated) | 6.24 µM | 3.88
47 | COc1cccc(CN2C(=O)c3cccc(N)c3C2=O)c1 | 4.47 µM | 2.76
48 | O=C(N/N=C/c1ccc(Cl)cc1)c1nc2ccc([N+](=O)[O-])cc2c(=O)[nH]1 | > 54 µM (inactive) | 1.04
49 | COC(=O)c1cc(NC(=O)c2cccc(Cl)c2)c(=O)oc1/C=C/Nc1cc(C)cc(C)c1 | 4.37 µM | 22.8
50 | COc1ccc(NC(=O)N(CCc2ccccc2)Cc2cc3c(C)cc(C)cc3[nH]c2=O)cc1 | > 54 µM (inactive) | 0.987
51 | CCN1C(=O)/C(=C\c2ccc(-c3ccc([N+](=O)[O-])cc3OC)o2)SC1=Nc1cccc(C(=O)O)c1 | > 54 µM (inactive) | 0.573
52 | COc1cc(C=C2C(=O)c3ccccc3C2=O)cc(OC)c1OC | > 54 µM (inactive) | 1.06
53 | CCn1c(CSc2nccn2C)nc2cc(C(=O)O)ccc21 | 13 µM | 2.34
54 | CC(C)(C)c1ccc(OCC(=O)Nc2ccc3c4c(cccc24)C(=O)NC3=O)cc1 | > 54 µM (inactive) | 2.15
55 | Fc1ccc(NCc2cccnc2)cc1F | 2.14 µM | 3.89
56 | CCn1c2ccccc2c2cc(NC(=O)c3ccc(=O)oc3)ccc21 | > 54 µM (inactive) | 1.77
57 | CCOC(=O)[C@]1(C#N)[C@@H]2C=CC(C(C)=O)=CN2[C@@H](C(N)=O)[C@@H]1c1ccsc1 | 4.35 µM | 3.68
58 | CCN(CC)S(=O)(=O)c1ccc(C(=O)OCCN2C(=O)c3cccc4c(N5CCOCC5)ccc(c34)C2=O)cc1 | 1.53 µM | 111
59 | Cc1cc(=O)oc(C)c1C(=O)Nc1ccc2ncccc2c1 | 2.96 µM | 5.89
60 | O=C(O)CCC(=O)NCCC1=c2ccccc2=N/C1=C\c1c(O)n(Cc2ccc(F)cc2)c(=S)[nH]c1=O | 4.53 µM | 1.16
61 | O=C1c2cccc3c(O)ccc(c23)C(=O)N1Cc1ccccc1 | < 0.42 µM | 138
62 | C=CCn1c(=O)/c(=C/c2cc(OC)c(OC)c(OC)c2)s/c1=C(/C#N)c1nc2ccccc2n1C | 3.5 µM | 15.9
63 | CNC(=S)NN(c1ccccc1)c1ccccc1 | > 54 µM (inactive) | 1.01

Row | SMILES | IC50 | fold change
64 | CN(C)c1ccnc2sc(C(=O)c3ccc(Br)cc3)c(N)c12 | > 54 µM (inactive) | 0.973
65 | CCSc1nnc(NC(=O)C(C(F)(F)F)C(F)(F)F)s1 | > 54 µM (inactive) | 0.583
66 | Fc1ccc(/C=N/NC2=Nc3cccc4cccc2c34)cc1 | 7.4 µM | 3.32
67 | COC(CNC(=O)c1ccc2c3c(onc13)-c1ccccc1C2=O)OC | < 0.42 µM | 137
68 | COC(=O)CN1C(=S)N(c2ccc(OC)cc2)C(=O)/C1=C/c1ccc(N2CCOCC2)cc1 | 6.67 µM | 2.83
69 | Cc1ccc(N2C(=O)[C@@H]3[C@H](C2=O)C2c4ccccc4C=CN2[C@@H]3C(=O)c2ccco2)cc1 (some centres not stated) | 5.71 µM | 2.76
70 | CC1CN(c2nc3ccccc3nc2C(C#N)C(=O)NCc2ccc3c(c2)OCO3)CC(C)O1 (configuration not stated) | 5.37 µM | 4.35
71 | Nc1cc2c3c(cccc3c1)C(=O)N(CCN1CCCC1)C2=O | 4.78 µM | 3.92
72 | COc1ccc(S(=O)(=O)c2c(N)n(Cc3ccco3)c3nc4ccccc4nc23)cc1 | 9.62 µM | 1.74
73 | C=CCn1c(=O)[nH]c2nc3cc(N=CN(C)C)c(C)cc3nc2c1=O | < 0.42 µM | 40
74 | O=C(CSc1nc2ncccc2[nH]1)Nc1ccc2c(c1)OCO2 | > 54 µM (inactive) | 1.02
75 | CCc1ccc[n+](-c2[nH]c(=O)sc2/C=N/NC([S-])=Nc2ccccc2)c1 | 22.1 µM | 2.13
76 | CC(=O)N1CCCc2cc(S(=O)(=O)N(CC(C)C)CC(C)C)ccc21 | > 54 µM (inactive) | 0.967
77 | CCCCCCOC(=O)C(C#N)c1nc2ccccc2nc1N1CCOCC1 (configuration not stated) | 14.6 µM | 8.17
78 | O=c1[nH]c(=O)n(Cc2ccccc2Cl)c(O)c1/C=C1/C=CC=N1 | > 54 µM (inactive) | 1.75
79 | CN1Cc2c(c(C#N)c(N)n(C)c2=S)CC1(C)C | > 54 µM (inactive) | 1.89
80 | N#CC1=C(N)N2C(=C(C#N)C1c1ccccc1)Sc1ccccc12 (configuration not stated) | > 54 µM (inactive) | 2.54
81 | COc1ccc(NC(=O)CSc2nc3c(c(-c4cccs4)c2C#N)CN(C)CC3)cc1OC | > 54 µM (inactive) | 1.37
